US9376442B2, “Methylpyrrolopyrimidinecarboxamides” (Takeda GmbH, priority 2009, dated 2016)

How the values were obtained:
mice = settings: bleomycin-induced lung fibrosis model in mice; Cortijo et al. 2009; cited from earlier work
[1] = tested on: bleomycin-induced pulmonary fibrosis and pulmonary hypertension; settings: Hemnes et al. 2008; cited from earlier work
[2] = tested on: patients with pulmonary fibrosis; settings: Ghofrani 2002, Collard 2007; cited from earlier work
PDE4B1 = molecular target: T1, PDE4B1 (Homo sapiens, UniProt Q07343); assay: Inhibition of type 4 phosphodiesterase (PDE4) activity, modified SPA test with recombinant PDE4B1 expressed in SF21 insect cells; format: biochemical; settings: recombinant PDE4B1, 0.5 μM cAMP, read-out: PDE4B1 inhibitory values [measured as −log IC50 (mol/l)] (converted)
T1 construct: made in house; host or cells: SF21 insect cells (baculovirus; pCRBac vector), 1000 x g supernatant of homogenate
T1 sequence (Q07343 whole entry): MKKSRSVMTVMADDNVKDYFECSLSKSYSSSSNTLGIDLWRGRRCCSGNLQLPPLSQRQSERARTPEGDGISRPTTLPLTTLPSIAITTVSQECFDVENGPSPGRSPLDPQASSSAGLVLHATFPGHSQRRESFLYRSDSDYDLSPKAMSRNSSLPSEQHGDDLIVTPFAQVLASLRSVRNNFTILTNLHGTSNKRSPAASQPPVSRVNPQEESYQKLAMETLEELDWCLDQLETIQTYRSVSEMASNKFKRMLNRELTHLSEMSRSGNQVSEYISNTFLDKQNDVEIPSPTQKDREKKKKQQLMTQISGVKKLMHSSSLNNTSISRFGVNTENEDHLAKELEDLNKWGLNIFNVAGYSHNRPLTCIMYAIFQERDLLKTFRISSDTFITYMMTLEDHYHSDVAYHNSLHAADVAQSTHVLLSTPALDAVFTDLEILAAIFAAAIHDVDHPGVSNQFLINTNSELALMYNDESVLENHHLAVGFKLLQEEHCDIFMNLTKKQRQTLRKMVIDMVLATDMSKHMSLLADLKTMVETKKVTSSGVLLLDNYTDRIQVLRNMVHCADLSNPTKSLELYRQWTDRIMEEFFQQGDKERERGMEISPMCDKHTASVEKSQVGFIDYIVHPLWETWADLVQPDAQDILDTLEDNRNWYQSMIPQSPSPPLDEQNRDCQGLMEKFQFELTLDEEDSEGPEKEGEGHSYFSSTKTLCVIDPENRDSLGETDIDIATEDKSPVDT
Method in brief: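 Modified [3H]cAMP SPA using 1000×g supernatant of SF21 cells expressing recombinant human PDE4B1, in 20 mM Tris pH 7.4, 0.1 mg/ml BSA, 5 mM Mg2+, 0.5 μM cAMP. After 5 min preincubation at 37 °C, 15 min reaction, stopped with SPA beads plus IBMX; IC50 by non-linear regression.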

PDE5A1 = molecular target: T2, PDE5A1 (Homo sapiens, UniProt O76074); assay: Inhibition of type 5 phosphodiesterase (PDE5) activity, modified SPA test with human platelet lysate; format: biochemical; settings: 0.5 μM cGMP, read-out: PDE5A1 inhibitory values [measured as −log IC50 (mol/l)] (converted)
T2 construct: from tissue; host or cells: human platelets from fresh donor blood (10,000 x g supernatant of sonicated lysate)
Method in brief: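 Enzyme source is lysate from human platelets (10,000 g supernatant). Compound preincubated 5 min at 37° C in Tris pH 7.4 containing 1 μM motapizone and 10 nM of a PDE2 inhibitor. Reaction started with 0.5 μM cGMP ([3H] tracer) and run 15 min; SPA read-out, IC50 by non-linear regression.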

Row | IC50 (PDE4B1) [nM] | IC50 (PDE5A1) [nM] | Structure (SMILES) | also measured
1 |  |  | O=C(Nc1c(Cl)cncc1Cl)c1ccc(OC(F)F)c(OCC2CC2)c1 [roflumilast] | fibrosis development (mice): inhibit fibrosis development
2 |  |  | CCCc1nn(C)c2c(=O)[nH]c(-c3cc(S(=O)(=O)N4CCN(C)CC4)ccc3OCC)nc12 [sildenafil] | bleomycin-induced pulmonary fibrosis and pulmonary hypertension [1]: attenuates bleomycin-induced pulmonary fibrosis and pulmonary hypertension; exercise tolerance [2]: increases exercise tolerance; lung hemodynamic (vascular resistance and ventilation/perfusion matching) [2]: improves lung hemodynamic
3 | 100 to 1000 | 1 to 10 | Cc1ccc(OCC2CC2)c(-c2ncnc3c(C(=O)N[C@H]4CCC[C@H]4O)c(C)[nH]c23)c1 [Example E177, 4-[2-(Cyclopropylmethoxy)-5-methylphenyl]-N-[(1S,2R)-2-hydroxycyclopentyl]-6-methyl-5H-pyrrolo[3,2-d]pyrimidine-7-carboxamide] | 
4 | < 100 | < 1 | Cc1[nH]c2c(-c3cc(C(F)(F)F)ccc3OCC3CC3)ncnc2c1C(=O)N[C@H]1CC[C@H](NC(=O)CO)CC1 [Example F59, 4-[2-(Cyclopropylmethoxy)-5-(trifluoromethyl)phenyl]-N-{trans-4-[(hydroxyacetyl)amino]cyclohexyl}-6-methyl-5H-pyrrolo[3,2-d]pyrimidine-7-carboxamide] | 
5 | < 100 | < 1 | CCC(=O)N[C@H]1CC[C@H](NC(=O)c2c(C)[nH]c3c(-c4cc(CC)ccc4OCC4CC4)ncnc23)CC1 [Example E149, 4-[2-(Cyclopropylmethoxy)-5-ethylphenyl]-6-methyl-N-[trans-4-(propanoylamino)cyclohexyl]-5H-pyrrolo[3,2-d]pyrimidine-7-carboxamide] | 
6 | < 100 | < 1 | COCC(=O)N[C@H]1CC[C@@H](NC(=O)c2c(C)[nH]c3c(-c4cc(C(F)(F)F)ccc4OCC4CC4)ncnc23)CC1 [Example E98, 4-[2-(Cyclopropylmethoxy)-5-(trifluoromethyl)phenyl]-N-{cis-4-[(methoxyacetyl)amino]cyclohexyl}-6-methyl-5H-pyrrolo[3,2-d]pyrimidine-7-carboxamide] | 
7 | < 100 | < 1 | CCc1ccc(OCC2CC2)c(-c2ncnc3c(C(=O)N[C@H]4CC[C@@H](NC(=O)CO)CC4)c(C)[nH]c23)c1 [Example F95, 4-[2-(Cyclopropylmethoxy)-5-ethylphenyl]-N-{cis-4-[(hydroxyacetyl)amino]cyclohexyl}-6-methyl-5H-pyrrolo[3,2-d]pyrimidine-7-carboxamide] | 
8 | < 100 | < 1 | COCC(=O)N[C@H]1CC[C@H](NC(=O)c2c(C)[nH]c3c(-c4cc(F)ccc4OCC4CC4)ncnc23)CC1 [Example E43, 4-[2-(Cyclopropylmethoxy)-5-fluorophenyl]-N-{trans-4-[(methoxyacetyl)amino]cyclohexyl}-6-methyl-5H-pyrrolo[3,2-d]pyrimidine-7-carboxamide] | 
9 | 100 to 1000 | < 1 | CCC(=O)N1C[C@@H](O)[C@H](NC(=O)c2c(C)[nH]c3c(-c4cc(CC)ccc4OCC4CC4)ncnc23)C1 (relative stereo) [Example E155, 4-[2-(Cyclopropylmethoxy)-5-ethylphenyl]-N-[(3R*,4R*)-4-hydroxy-1-propanoylpyrrolidin-3-yl]-6-methyl-5H-pyrrolo[3,2-d]pyrimidine-7-carboxamide] | 
10 | < 100 | < 1 | CC(=O)N1CCC(NC(=O)c2c(C)[nH]c3c(-c4cc(C(F)(F)F)ccc4OCC4CC4)ncnc23)CC1 [Example E90, N-(1-Acetylpiperidin-4-yl)-4-[2-(cyclopropylmethoxy)-5-(trifluoromethyl)phenyl]-6-methyl-5H-pyrrolo[3,2-d]pyrimidine-7-carboxamide] | 
11 | < 100 | < 1 | COCC(=O)N[C@H]1CC[C@H](NC(=O)c2c(C)[nH]c3c(-c4cc(C(F)F)ccc4OCC4CC4)ncnc23)C1 [Example P91, 4-[2-(Cyclopropylmethoxy)-5-(difluoromethyl)phenyl]-N-{(1S,3S)-3-[(methoxyacetyl)amino]cyclopentyl}-6-methyl-5H-pyrrolo[3,2-d]pyrimidine-7-carboxamide] | 
12 | < 100 | < 1 | CCc1ccc(OCC2CC2)c(-c2ncnc3c(C(=O)N[C@H]4CC[C@H](NC(=O)CO)CC4)c(C)[nH]c23)c1 [Example F93, 4-[2-(Cyclopropylmethoxy)-5-ethylphenyl]-N-{trans-4-[(hydroxyacetyl)amino]cyclohexyl}-6-methyl-5H-pyrrolo[3,2-d]pyrimidine-7-carboxamide] | 
13 | < 100 | < 1 | CC(=O)N[C@H]1CC[C@H](NC(=O)c2c(C)[nH]c3c(-c4cc(C)ccc4OCC4CC4)ncnc23)CC1 [Example E84, N-[trans-4-(acetylamino)cyclohexyl]-4-[2-(cyclopropylmethoxy)-5-methylphenyl]-6-methyl-5H-pyrrolo[3,2-d]pyrimidine-7-carboxamide] | 
14 | < 100 | < 1 | CCC(=O)N[C@H]1CC[C@H](NC(=O)c2c(C)[nH]c3c(-c4cc(C(F)(F)F)ccc4OCC4CC4)ncnc23)CC1 [Example E94, 4-[2-(cyclopropylmethoxy)-5-(trifluoromethyl)phenyl]-6-methyl-N-[trans-4-(propanoylamino)cyclohexyl]-5H-pyrrolo[3,2-d]pyrimidine-7-carboxamide] | 
15 | < 100 | < 1 | CCC(=O)N[C@H]1CC[C@H](NC(=O)c2c(C)[nH]c3c(-c4cc(C(F)F)ccc4OCC4CC4)ncnc23)C[C@H]1F (relative stereo) [Example P200, 4-[2-(Cyclopropylmethoxy)-5-(difluoromethyl)phenyl]-N-[(1S*,3R*,4S*)-3-fluoro-4-(propanoylamino)cyclohexyl]-6-methyl-5H-pyrrolo[3,2-d]pyrimidine-7-carboxamide] | 
16 | < 100 | < 1 | Cc1ccc(OCC2CC2)c(-c2ncnc3c(C(=O)N[C@H]4CC[C@@H](NC(=O)CO)CC4)c(C)[nH]c23)c1 [Example F55, 4-[2-(Cyclopropylmethoxy)-5-methylphenyl]-N-{cis-4-[(hydroxyacetyl)amino]cyclohexyl}-6-methyl-5H-pyrrolo[3,2-d]pyrimidine-7-carboxamide] | 
17 | < 100 | 1 to 10 | COCC(=O)N1C[C@@H](NC(=O)c2c(C)[nH]c3c(-c4cc(C(F)F)ccc4OCC4CC4)ncnc23)C[C@@H]1C [Example P26, 4-[2-(Cyclopropylmethoxy)-5-(difluoromethyl)phenyl]-N-[(3S,5S)-1-(methoxyacetyl)-5-methylpyrrolidin-3-yl]-6-methyl-5H-pyrrolo[3,2-d]pyrimidine-7-carboxamide] | 
18 | 100 to 1000 | < 1 | COc1ccc(OCC2CC2)c(-c2ncnc3c(C(=O)NC4CCN(C(C)=O)CC4)c(C)[nH]c23)c1 [Example E66, N-(1-acetylpiperidin-4-yl)-4-[2-(cyclopropylmethoxy)-5-methoxyphenyl]-6-methyl-5H-pyrrolo[3,2-d]pyrimidine-7-carboxamide] | 
19 | < 100 | < 1 | CCc1ccc(OCC2CC2)c(-c2ncnc3c(C(=O)N[C@H]4CC[C@H](NC(C)=O)CC4)c(C)[nH]c23)c1 [Example E148, N-[trans-4-(Acetylamino)cyclohexyl]-4-[2-(cyclopropylmethoxy)-5-ethylphenyl]-6-methyl-5H-pyrrolo[3,2-d]pyrimidine-7-carboxamide] | 
20 | < 100 | < 1 | CCC(=O)N1CCC(NC(=O)c2c(C)[nH]c3c(-c4cc(C)ccc4OCC4CC4)ncnc23)CC1 [Example E82, 4-[2-(Cyclopropylmethoxy)-5-methylphenyl]-6-methyl-N-(1-propanoylpiperidin-4-yl)-5H-pyrrolo[3,2-d]pyrimidine-7-carboxamide] | 
